Reference: patent US6849593B1, “Bifidogenic peptides” (Pharis Biotec GmbH, priority 1997, dated 2005)

Tested on: Bifidobacterium bifidum ATCC 29521
Experiment: bifidogenic activity: growth test with bifidobacteria in combination with a growth test with E. coli
Format: cell-based
Details: growth of Bifidobacterium bifidum (50% Elliker broth, anaerobic, 37° C., 16 hours) relative to growth of E. coli K12 (3 g/l tryptic soy broth, 16 hours); desalted HPLC fractions from pepsin-treated human milk
Description: This object is achieved by peptides having the features of claim 1. […]
For each assay, cultures of E. coli K12 were freshly inoculated in tryptic soy broth (Sigma, Deisenhofen, Germany, order No. T8907) (Difco Manual, 10th ed., p. 1027). […] The photometric absorption of the inoculum was 0.05, measured at 500 nm. The growth of the bacteria under the influence of the peptides was also photometrically determined in an ELISA reader after 16 hours and manually determined by microscopy.
For each assay, cultures of Bifidobacterium bifidum ATCC 29521 were freshly inoculated in Elliker broth (Difco, Detroit, USA) (tryptone 20 g, yeast extract 5 g, gelatin 2.5 g, dextrose 5 g, lactose 5 g, saccharose 5 g, sodium chloride 4 g, sodium acetate 1.5 g, ascorbic acid 0.5 g). […] The photometric absorption of the inoculum was 0.05, measured at 550 nm. The growth of the bacteria under the influence of the peptides was also photometrically determined in an ELISA reader after 16 hours and manually determined by microscopy. […]

YQRRPAIAINNPYVPRTYYANPAVVRPHAQIPQRQYLPNSHPPTVVRRPLPSF (YQRRPAIAINNPYVPRTYYANPAVVRPHAQIPQRQYLPNSHPPTVVRRPNLHPSF) [casein K-63-117, pure bifidogenic component of fraction 9, peptide isolated from pepsin-treated human milk]
bifidogenic activity: bifidogenic

GRRRRSVQWCAVSQPEATKCFQWQRNMRKVRGPPVSCIKRDSPICCIQA (GRRRSVQWCAVSQPEATKCFQWQRNMRKVRGPPVSCIKRDSPIQCIQA) [neutrophile lactoferrin-20-67, bifidogenic component of fraction 10, peptide isolated from pepsin-treated human milk]
bifidogenic activity: bifidogenic
